Test results from patent publication EP0272223A1, “4-Oxo-1,3-benzodioxane derivative” (FARMACEUTICI CABER S.p.A., priority 1987, dated 1988).
Like-named read-outs stand apart in the source and are kept apart here.

What was measured:
[1] = test system: Carrageenin oedema in the rat; assay: Antiinflammatory activity - carrageenin oedema test (Winter method); assay type: in vivo; conditions: for PAW/VOLUME ml/10 - M ± ES 2h / PAW/VOLUME ml/10 - M ± ES 4h / PAW/VOLUME ml/10 - M ± ES 6h / PAW/VOLUME ml/10 - M ± ES 8h / PAW/VOLUME ml/10 - M ± ES 24h / PAW/VOLUME ml/10 - M ± ES Basal: equimolecular doses p.o. (ASA 100 mg/kg, TF 914 180 mg/kg) 30 minutes before carrageenin; for PAW/VOLUME ml/10 - M ± ES Basal: 10 animals; for AREAS Δ % M ± ES: area of the oedema curve; for AREAS Δ % M ± ES / AREAS inhib. vs. contr.: p.o. (ASA 100 mg/kg, TF 914 180 mg/kg); for AREAS inhib. vs. contr.: inhibition of area vs. control
Description: Antiinflammatory activity of TF 914 was evaluated by means of the carrageenin oedema test in the rat, according to the method of Winter, Rissly, Ness (Proc. Soc. Exp. Biol. Med., 1962, 111, 544), in comparison with acetylsalicylic acid at equimolecular doses.
The compound under test and acetylsalicylic acid, as a comparison, were administered by the oral route 30 minutes before subplantar injection of carrageenin. […]
The obtained results, which are shown in table 2, evidence the marked antiinflammatory activity of TF 914, said activity being higher than that of acetylsalicylic acid in equimolecular doses, under the experimental conditions used.

[2] = test system: Phenylquinone writhing in the mouse; assay: Analgesic activity - phenylquinone writhing test (Siegmund method); assay type: in vivo; conditions: for Mean number of writhings: equimolecular doses os (acetylsalicylic acid 100 mg/kg, TF 914 180 mg/kg) 30 min. before i.p. phenylquinone; for N. animals showing writhing / % inhib. vs. contr.: os (acetylsalicylic acid 100 mg/kg, TF 914 180 mg/kg); for % inhib. vs. contr.: writhings
Description: The analgesic activity was studied by the quinone writhing test in the mouse according to the method of Siegmund E. et al. (Proc. Soc. Exp. Biol. Med., 1957, 95, 729). TF 914 was orally administered, in comparison with acetylsalicylic acid, in equimolecular doses. The two drugs were administered 30 min. before intraperitoneal injection of phenylquinone.

gastric mucosa = assay type: in vivo, rats
Description: The action of equimolecular doses of TF 914 and acetylsalicylic acid on gastric mucosa was evaluated by administering the products by the oral route to rats fasted for 18 hours at least.

[3] = test system: carrageenin induced pleuritis; assay: Antiinflammatory activity - carrageenin induced pleuritis test (Vinegar method); assay type: in vivo, rat; conditions: 5 h; for EXUDATE VOLUME ml: 100 mg/kg p.o. 1 hour before carrageenin; for N. LEUKOCYTES % inhib. vs. contr. / EXUDATE VOLUME % vs.contr. / N. LEUKOCYTES ml: 100 mg/kg p.o.; for EXUDATE VOLUME % vs.contr.: protection on exudate volume; for N. LEUKOCYTES ml: total number of leukocytes in pleuric exudate
Description: The antiinflammatory activity was tested by the carrageenin induced pleuritis test in the rat, according to the method of Vinegar R. et al. (Proc. Soc. Exp. Biol. Mod., 1973, 143, 3).
TF 914 and phenylbutazone as a control were administered orally in equiponderal doses, 1 hour before the carrageenin injection in the pleuric cavity.
Five hours later the animals were killed, and volume of the pleuric exudate and total number of leukocytes therein were evaluated.

[4] = Acute toxicity by single administration (LD50, Litchfield and Wilcoxon); conditions: in vivo
Description: Toxicity by single administrations of TF 914 was studied in the mouse and the rat, by oral and intraperitoneal route.
LD₅₀ values were calculated according to the method of Litchfield and Wilcoxon (J. Pharm. Exp. Therap., 1949, 96, 99).
The obtained results, which are summarized in table 1, evidenced that TF 914 has no toxicity.

[5] = test system: bronchosecretolytic activity; assay: Bronchosecretolytic activity (Mawatari method); assay type: in vivo, male Wistar rat; conditions: equimolecular doses os (TF 914 360 mg/kg, Thiola 200 mg/kg); 10 animals
Description: The bronchosecretolytic activity was evaluated in the male Wistar rat by oral administration of TF 914 ac cording to the method of Mawatari (Mawatari H. Kagoshima Daigaku Igaku-Zasshi- 27, 561, 1976), in comparison with Thiola®, in equimolecular doses.

[6] = Pharmacokinetics after oral administration, HPLC; assay type: in vivo; conditions: rat, equimolecular doses, vs. acetylsalicylic acid and Thiola
Description: The pharmakinetics studies on TF 914 were carried out in the rat, in comparison with acetylsalicylic acid and Thiola®, after oral administration of equimolecular doses of the three compounds.
Measurements were performed by HPLC.

SMILES | PAW/VOLUME ml/10 - M ± ES 2h [1] | PAW/VOLUME ml/10 - M ± ES 4h [1] | PAW/VOLUME ml/10 - M ± ES 6h [1] | PAW/VOLUME ml/10 - M ± ES 8h [1] | PAW/VOLUME ml/10 - M ± ES 24h [1] | PAW/VOLUME ml/10 - M ± ES Basal [1] | AREAS Δ % M ± ES [1] | AREAS inhib. vs. contr. [1] | Mean number of writhings [2] | N. animals showing writhing [2] | % inhib. vs. contr. [2] | EXUDATE VOLUME ml [3] | N. LEUKOCYTES % inhib. vs. contr. [3] | N. LEUKOCYTES ml [3] | % increase of FlNa in comparison with controls [5] | also measured
CC(=O)Oc1ccccc1C(=O)O [ASA, Acetylsalicylic acid, reference compound] | 58,3 ± 2,5 ml/10 | 66,0 ± 3,0 ml/10 | 59,3 ± 1,7 ml/10 | 52,8 ± 2,6 ml/10 | 45,3 ± 1,5 ml/10 | 43,1 ± 1,5 ml/10 | 161,5 ± 20,9% | 37,0 | 1.4 ± 0.9 | 3/10 | 89.06% |  |  |  |  | Ulcer size (mm) x ± es (gastric mucosa; equimolecular doses os (ASA 100 mg/kg, TF 914 180 mg/kg), rats fasted at least 18 hours, 6 hours after treatment): 3.6 ± 1.34 mm; gastro-injuring action (in words) (gastric mucosa; examination of the mucosa 6 hours after oral treatment, equimolecular doses): marked gastro-injuring effects
CCCCC1C(=O)N(c2ccccc2)N(c2ccccc2)C1=O [PHENYLBUTAZONE, phenylbutazone, reference compound] |  |  |  |  |  |  |  |  |  |  |  | 1,75 ±2,25 ml | 36,7% | 8,52 ±1,27 ml |  | EXUDATE VOLUME % vs.contr. [3]: 28,9%
CC(SC1(C)OC(=O)c2ccccc2O1)C(=O)NCC(=O)O (stereo not drawn) [TF 914, 2-methyl-2[1-(carboxy-methyl-amino-carbonyl)ethyl]thio-4-oxo-benzodioxane-1.3] | 53,3 ± 1,6 ml/10 | 60,4 ± 2,0 ml/10 | 61,8 ± 2,7 ml/10 | 54,5 ± 2,8 ml/10 | 45,1 ± 1,5 ml/10 | 42,8 ± 0,7 ml/10 | 145,4 ± 20,4% | 43,3 | 1.8 ± 1.1 | 3/10 | 85.93% | 1,79 ±0,25 ml | 19.5% | 10,84 ±1,32 ml | 35.6% | LD50 ([4]; ip, Mouse): > 3000 mg/kg; LD50 ([4]; po, Mouse, os): > 3000 mg/kg; LD50 ([4]; po, Rat, os): > 3000 mg/kg; N. LEUKOCYTES % inhib. vs. contr. ([3]; listed as MR 914): 19,5%; EXUDATE VOLUME % vs.contr. ([3]; 100 mg/kg): 27.2%; EXUDATE VOLUME % vs.contr. ([3]; listed as MR 914, 100 mg/kg): 27,2%; gastro-injuring action (in words) (gastric mucosa; rat, in vivo, po): substantially has no gastro-injuring action; bioavailability (in words) [6]: better bioavailability; persistence in blood stream (in words) [6]: remain in blood stream for longer periods
CC(S)C(=O)NCC(=O)O (stereo not drawn) [Thiola®, reference compound] |  |  |  |  |  |  |  |  |  |  |  |  |  |  | 33.4% | 
